Test results taken from ChEMBL document CHEMBL1136844, “Discovery of novel small molecule cell type-specific enhancers of NF-kappaB nuclear translocation” (Bioorg Med Chem Lett, 2009).
Active and inactive are the calls of the source. The rule behind the calls is not given here.

How the values were obtained:
[1] = biological target: Transcription factor p65 (Homo sapiens) (UniProt Q04206); test: Potentiation of TNF-alpha-induced NF-kappaB p65 nuclear translocation in HUVEC cells by immunostaining; type: cell-based
Transcription factor p65 (Homo sapiens), sequence (Q04206 whole entry): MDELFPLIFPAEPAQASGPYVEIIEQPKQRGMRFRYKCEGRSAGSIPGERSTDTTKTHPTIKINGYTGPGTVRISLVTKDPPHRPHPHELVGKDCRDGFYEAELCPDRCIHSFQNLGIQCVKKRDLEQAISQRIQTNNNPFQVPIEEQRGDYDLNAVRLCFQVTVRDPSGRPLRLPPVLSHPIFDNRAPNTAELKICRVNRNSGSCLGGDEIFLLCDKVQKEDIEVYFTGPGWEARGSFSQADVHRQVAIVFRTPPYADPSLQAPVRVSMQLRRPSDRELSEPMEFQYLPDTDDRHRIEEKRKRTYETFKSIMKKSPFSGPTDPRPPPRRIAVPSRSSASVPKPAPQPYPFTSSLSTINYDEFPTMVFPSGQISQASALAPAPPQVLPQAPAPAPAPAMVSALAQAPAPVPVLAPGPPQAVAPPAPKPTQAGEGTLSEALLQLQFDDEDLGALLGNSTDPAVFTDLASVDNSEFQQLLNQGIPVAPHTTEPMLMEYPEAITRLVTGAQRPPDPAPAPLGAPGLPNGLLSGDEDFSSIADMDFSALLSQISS

[2] = biological target: Transcription factor p65 (Homo sapiens) (UniProt Q04206); test: Induction of NF-kappaB p65 nuclear translocation in HUVEC cells by immunostaining; type: cell-based

Compound | Activity [1] | Activity [2]
COc1ccc2nc(-c3cccs3)nc(NCCN3CCOCC3)c2c1 | inactive | inactive
COc1ccc(CCNc2nc(-c3cccs3)nc3ccc(OC)cc23)cc1 | inactive | inactive
COc1cccc2nc(-c3cccs3)nc(NN3C(=O)CC(C)C3=O)c12 (configuration not stated) | inactive | inactive

Continued, values first:

Activity [1] | Activity [2] | Compound
inactive | inactive | COc1ccc2nc(-c3cccs3)nc(N3CCOCC3)c2c1
inactive | inactive | COc1ccc2nc(-c3cccs3)nc(NCc3ccccc3Cl)c2c1
inactive | inactive | COc1ccc2nc(-c3cccs3)nc(NNS(=O)(=O)c3ccc(C)cc3)c2c1
